According to paper PMC5527824 (Frontiers in bioscience (Scholar edition), 2015):
Where “and” joins values, the source holds several entries; their conditions need not be identical. Identical values can stand only once. Like-named read-outs stand apart in the source and are kept apart here.

Columns and labels:
[1] = rat, in vivo, po; cited from earlier work
Akita mice [2] = assay: Ins2^Akita mouse model of type 1 diabetes; type: in vivo; details: 0.05% in diet for 18 weeks
[3] = molecular target: 5-LOX from human peripheral blood mononuclear leukocytes (PBML) (Homo sapiens, UniProt P09917); assay: 5-LOX inhibition; type: biochemical; details: Fisetin IC50, 5-LOX
COX1 (Human platelets) = COX1 (Human platelets) (Homo sapiens, UniProt P23219); assay: COX1 inhibition; type: biochemical
COX2 (Human recombinant) = COX2 (Human recombinant) (Homo sapiens, UniProt P35354); assay: COX2 inhibition; type: biochemical
[4] = pharmacokinetics in mice, oral; type: in vivo, mouse; details: oral 50 mg/kg bw, unpublished results
[5] = short-term toxicity study in mice; type: in vivo; details: oral 2000 mg/kg bw, examined for 48 hr, outside laboratory
hERG = hERG (Homo sapiens, UniProt Q12809); assay: hERG activity; details: at concentrations up to 10 μM, the highest concentration tested; unpublished results
cytochrome P450 3A4 = cytochrome P450 3A4 (Homo sapiens, UniProt P08684); assay: cytochrome P450 3A4 inhibition; type: in vitro ADME; details: at concentrations up to 10 μM; unpublished results
cytochrome P450 2C9 = cytochrome P450 2C9 (Homo sapiens, UniProt P11712); assay: cytochrome P450 2C9 inhibition; type: in vitro ADME; details: at concentrations up to 10 μM; unpublished results
cytochrome P450 2D6 = cytochrome P450 2D6 (Homo sapiens, UniProt P10635); assay: cytochrome P450 2D6 inhibition; type: in vitro ADME; details: at concentrations up to 10 μM; unpublished results
nerve cell = details: of ~30 flavonoids tested; cited from earlier work
PC12 cells = details: of ~30 flavonoids tested; cited from earlier work
[6] = system: APPswe/PS1dE9 double transgenic AD mice; details: 0.05% in food, cited from earlier work
[7] = system: APPswe/PS1dE9 double transgenic AD mice; details: AD mice 12 months of age, 0.05% in food; cited from earlier work
[8] = system: APPswe/PS1dE9 double transgenic AD mice; details: AD mice 12 months of age, 0.05% in food; cited from earlier work; remark: listed apart in the source
[9] = system: scopolamine-induced memory impairment in mice; details: cited from earlier work
PC12/Htt^Q103 cells = details: 10 μM, 24 hr after induction of Httex1-103QP; cited from earlier work
R6/2 mouse = details: R6/2 mice, cited from earlier work
[10] = system: mouse HT22 hippocampal nerve cell line; details: read-out: EC50, protection from IAA-induced death; HT22 cells; cited from earlier work
tMCAO in mice [11] = details: cited from earlier work
tMCAO in mice [12] = details: cited from earlier work; for intracellular TNF-α production in macrophages / TNF-α–producing microglia: brain
[13] = system: rodent model of depression; details: oral administration; cited from earlier work
[14] = system: rodent model of depression; details: oral administration; cited from earlier work; remark: listed apart in the source
monoamine oxidase A = details: stated as possible mechanism; cited from earlier work
Akita mice [15] = details: cited from earlier work
[16] = cited from earlier work
liver microsomes = details: ferrous sulfate/ascorbate; cited from earlier work
[17] = test tube assays; cited from earlier work
[18] = cited from earlier work; remark: listed apart in the source
Nrf2 = details: basal half-life ~15 min; cited from earlier work
ATF4 = details: basal half-life ~10 min; cited from earlier work
[19] = system: mouse hippocampal HT22 cells; details: cited from earlier work
[20] = system: aluminum chloride toxicity in mice; details: oral 15 mg/kg bw; cited from earlier work
[21] = system: BV-2 microglial cell line; details: BV-2 cells; cited from earlier work
[22] = system: human lung adenocarcinoma cell line H1299; details: H1299 cells; cited from earlier work
[23] = system: NF-κB coactivator CBP/p300; details: human monocytes; cited from earlier work
RAW264.7 macrophages = details: RAW264.7, via increased MKP-1 levels; cited from earlier work
[24] = system: mouse N9 microglial cells; details: cited from earlier work
[25] = system: APPswe/PS1dE9 double transgenic AD mice; details: cited from earlier work
12-LOX = details: fish gill; cited from earlier work
5-LOX = details: stimulated peritoneal leukocytes; cited from earlier work
15-LOX = details: rabbit reticulocytes; cited from earlier work
Aβ = details: cell-free assay system; cited from earlier work
HT22 cells = details: cited from earlier work
proteasome = details: cited from earlier work
[26] = rats, intravenous and oral administration; cited from earlier work
[27] = mouse, intravenous 223 mg/kg bw; cited from earlier work
[28] = 0.05% in diet for 9 months (~25 mg/kg bw), vs control; cited from earlier work
[29] = molecular target: 15-LOX from rabbit reticulocytes (Oryctolagus cuniculus, UniProt P12530); assay: 15-LOX inhibition; details: Fisetin IC50, 15-LOX
[30] = cited from earlier work; remark: listed apart in the source

Sequence of 15-LOX from rabbit reticulocytes (P12530 whole entry): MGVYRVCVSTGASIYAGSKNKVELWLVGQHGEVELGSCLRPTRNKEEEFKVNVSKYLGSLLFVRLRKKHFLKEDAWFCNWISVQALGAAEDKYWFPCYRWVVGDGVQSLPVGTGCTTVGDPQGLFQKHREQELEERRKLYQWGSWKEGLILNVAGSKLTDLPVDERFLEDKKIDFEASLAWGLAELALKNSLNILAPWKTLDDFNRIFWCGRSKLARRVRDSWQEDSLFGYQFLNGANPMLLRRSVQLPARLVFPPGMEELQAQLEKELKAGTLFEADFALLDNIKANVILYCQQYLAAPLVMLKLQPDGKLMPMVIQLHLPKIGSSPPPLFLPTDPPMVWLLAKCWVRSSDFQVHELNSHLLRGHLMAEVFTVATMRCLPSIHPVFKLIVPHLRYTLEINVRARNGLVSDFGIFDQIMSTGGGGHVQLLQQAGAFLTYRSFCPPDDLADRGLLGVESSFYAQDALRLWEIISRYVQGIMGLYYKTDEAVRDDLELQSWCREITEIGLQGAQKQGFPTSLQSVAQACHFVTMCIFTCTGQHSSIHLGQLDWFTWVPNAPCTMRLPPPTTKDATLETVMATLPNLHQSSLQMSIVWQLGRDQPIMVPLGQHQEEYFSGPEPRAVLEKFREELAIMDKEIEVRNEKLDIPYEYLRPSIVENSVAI
Sequence of 5-LOX from human peripheral blood mononuclear leukocytes (PBML) (P09917 whole entry): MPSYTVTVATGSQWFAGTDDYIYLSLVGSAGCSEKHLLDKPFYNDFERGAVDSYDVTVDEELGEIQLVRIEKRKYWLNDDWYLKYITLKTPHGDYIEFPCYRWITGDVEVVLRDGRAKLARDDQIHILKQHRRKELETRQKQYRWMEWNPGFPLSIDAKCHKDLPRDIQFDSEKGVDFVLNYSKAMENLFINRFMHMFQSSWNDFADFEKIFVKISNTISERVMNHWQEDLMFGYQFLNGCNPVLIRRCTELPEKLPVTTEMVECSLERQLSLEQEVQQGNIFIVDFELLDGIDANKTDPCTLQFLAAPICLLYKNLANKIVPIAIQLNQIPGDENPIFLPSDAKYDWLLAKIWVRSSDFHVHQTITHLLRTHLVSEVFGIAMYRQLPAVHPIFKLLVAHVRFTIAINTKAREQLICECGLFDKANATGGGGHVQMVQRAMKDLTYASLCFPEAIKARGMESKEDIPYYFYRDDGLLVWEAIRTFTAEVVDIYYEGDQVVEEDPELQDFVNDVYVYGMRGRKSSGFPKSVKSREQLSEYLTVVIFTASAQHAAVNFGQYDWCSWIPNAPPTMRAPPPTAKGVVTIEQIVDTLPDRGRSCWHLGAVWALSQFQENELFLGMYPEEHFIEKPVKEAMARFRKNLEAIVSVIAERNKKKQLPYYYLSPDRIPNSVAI
Sequence of COX2 (Human recombinant) (P35354 18-604): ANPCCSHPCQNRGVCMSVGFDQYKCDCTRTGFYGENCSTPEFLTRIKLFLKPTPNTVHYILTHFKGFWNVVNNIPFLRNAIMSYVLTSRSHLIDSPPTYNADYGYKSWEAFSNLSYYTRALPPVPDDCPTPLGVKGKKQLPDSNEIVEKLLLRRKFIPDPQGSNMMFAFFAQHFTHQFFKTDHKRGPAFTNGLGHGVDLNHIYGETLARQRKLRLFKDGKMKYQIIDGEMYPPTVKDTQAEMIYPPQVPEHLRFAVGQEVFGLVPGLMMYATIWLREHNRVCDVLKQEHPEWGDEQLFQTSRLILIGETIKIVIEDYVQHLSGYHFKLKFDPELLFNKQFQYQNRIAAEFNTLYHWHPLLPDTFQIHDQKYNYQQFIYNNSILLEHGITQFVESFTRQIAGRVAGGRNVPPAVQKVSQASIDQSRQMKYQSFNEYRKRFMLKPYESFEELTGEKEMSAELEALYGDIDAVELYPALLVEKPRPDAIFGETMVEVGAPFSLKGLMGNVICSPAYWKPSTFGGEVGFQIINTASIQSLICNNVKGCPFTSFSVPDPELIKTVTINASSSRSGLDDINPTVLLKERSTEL
Sequence of cytochrome P450 3A4 (P08684 whole entry): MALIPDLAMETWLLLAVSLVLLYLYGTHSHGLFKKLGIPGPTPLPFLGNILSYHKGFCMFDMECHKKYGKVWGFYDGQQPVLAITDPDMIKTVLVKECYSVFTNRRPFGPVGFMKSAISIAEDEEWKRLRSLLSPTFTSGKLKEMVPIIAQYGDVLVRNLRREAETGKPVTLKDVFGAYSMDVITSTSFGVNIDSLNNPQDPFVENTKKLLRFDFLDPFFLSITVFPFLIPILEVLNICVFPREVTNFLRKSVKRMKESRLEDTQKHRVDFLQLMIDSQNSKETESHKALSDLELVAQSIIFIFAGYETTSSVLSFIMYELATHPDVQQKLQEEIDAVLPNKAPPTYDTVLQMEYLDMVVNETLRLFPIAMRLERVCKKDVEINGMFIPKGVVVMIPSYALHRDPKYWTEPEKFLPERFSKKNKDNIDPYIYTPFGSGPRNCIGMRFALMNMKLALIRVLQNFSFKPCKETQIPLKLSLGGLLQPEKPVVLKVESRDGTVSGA
Sequence of hERG (Q12809 whole entry): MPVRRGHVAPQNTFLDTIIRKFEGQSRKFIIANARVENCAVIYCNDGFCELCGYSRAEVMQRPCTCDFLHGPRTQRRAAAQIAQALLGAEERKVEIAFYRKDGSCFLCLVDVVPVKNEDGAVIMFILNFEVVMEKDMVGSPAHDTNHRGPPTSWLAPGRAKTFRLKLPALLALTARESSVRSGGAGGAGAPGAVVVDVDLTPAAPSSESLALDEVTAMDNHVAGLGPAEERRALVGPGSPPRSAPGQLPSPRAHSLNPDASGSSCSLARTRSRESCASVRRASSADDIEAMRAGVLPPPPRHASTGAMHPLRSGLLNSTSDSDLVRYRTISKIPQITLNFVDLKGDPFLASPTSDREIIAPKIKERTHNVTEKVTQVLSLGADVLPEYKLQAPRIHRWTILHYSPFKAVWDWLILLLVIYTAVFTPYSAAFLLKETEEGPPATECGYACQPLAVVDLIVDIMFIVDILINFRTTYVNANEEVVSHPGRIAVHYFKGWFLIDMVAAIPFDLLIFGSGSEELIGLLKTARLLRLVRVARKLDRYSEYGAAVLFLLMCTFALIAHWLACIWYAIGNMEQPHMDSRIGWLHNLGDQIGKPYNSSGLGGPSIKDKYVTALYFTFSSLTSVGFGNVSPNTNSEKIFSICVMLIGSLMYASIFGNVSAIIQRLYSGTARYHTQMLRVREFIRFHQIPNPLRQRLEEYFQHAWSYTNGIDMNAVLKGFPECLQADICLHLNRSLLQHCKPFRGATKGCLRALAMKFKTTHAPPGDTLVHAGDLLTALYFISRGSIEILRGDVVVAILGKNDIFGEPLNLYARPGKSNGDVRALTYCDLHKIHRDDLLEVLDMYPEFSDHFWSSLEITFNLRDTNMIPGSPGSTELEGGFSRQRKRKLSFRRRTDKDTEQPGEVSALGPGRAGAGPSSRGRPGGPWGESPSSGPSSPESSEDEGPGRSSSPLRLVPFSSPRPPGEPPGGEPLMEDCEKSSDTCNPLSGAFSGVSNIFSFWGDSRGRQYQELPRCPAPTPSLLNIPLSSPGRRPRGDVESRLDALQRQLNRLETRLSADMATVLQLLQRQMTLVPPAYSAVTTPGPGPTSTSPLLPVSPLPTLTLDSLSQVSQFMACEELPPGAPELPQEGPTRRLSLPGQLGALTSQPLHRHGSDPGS
Sequence of cytochrome P450 2C9 (P11712 whole entry): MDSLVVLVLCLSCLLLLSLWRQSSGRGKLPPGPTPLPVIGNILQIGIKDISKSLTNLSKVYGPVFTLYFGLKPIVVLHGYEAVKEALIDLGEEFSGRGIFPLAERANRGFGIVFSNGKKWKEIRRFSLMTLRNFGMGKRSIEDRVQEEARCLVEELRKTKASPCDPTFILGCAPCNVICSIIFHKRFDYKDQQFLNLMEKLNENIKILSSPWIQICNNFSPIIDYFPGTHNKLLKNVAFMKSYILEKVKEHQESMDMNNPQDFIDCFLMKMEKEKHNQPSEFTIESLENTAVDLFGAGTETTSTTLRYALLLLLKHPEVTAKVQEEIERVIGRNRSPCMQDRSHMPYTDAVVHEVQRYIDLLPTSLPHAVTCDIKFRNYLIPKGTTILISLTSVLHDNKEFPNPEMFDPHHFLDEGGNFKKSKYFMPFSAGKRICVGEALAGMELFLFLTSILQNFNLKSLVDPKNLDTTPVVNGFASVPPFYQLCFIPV
Sequence of COX1 (Human platelets) (P23219 24-599): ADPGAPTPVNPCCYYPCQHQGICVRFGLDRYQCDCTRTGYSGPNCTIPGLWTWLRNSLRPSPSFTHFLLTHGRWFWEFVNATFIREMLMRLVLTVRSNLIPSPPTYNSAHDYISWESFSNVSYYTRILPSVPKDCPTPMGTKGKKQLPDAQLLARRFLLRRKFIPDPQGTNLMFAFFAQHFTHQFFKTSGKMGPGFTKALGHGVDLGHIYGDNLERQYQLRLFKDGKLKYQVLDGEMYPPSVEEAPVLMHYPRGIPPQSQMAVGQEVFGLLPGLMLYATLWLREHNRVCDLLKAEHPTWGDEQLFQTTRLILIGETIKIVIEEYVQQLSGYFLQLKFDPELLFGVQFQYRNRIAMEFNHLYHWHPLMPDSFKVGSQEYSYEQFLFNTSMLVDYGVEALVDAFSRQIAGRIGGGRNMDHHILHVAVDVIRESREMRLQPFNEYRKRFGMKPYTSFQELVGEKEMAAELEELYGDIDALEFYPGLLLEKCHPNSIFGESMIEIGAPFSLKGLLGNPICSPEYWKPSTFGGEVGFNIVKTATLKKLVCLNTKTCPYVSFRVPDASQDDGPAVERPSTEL

O=c1cc(-c2ccccc2)oc2cc(O)c(O)c(O)c12 [baicalein]
levels of free and conjugated flavonoid [1]: ≤ 1000 nM

O=c1c(O)c(-c2ccc(O)c(O)c2)oc2cc(O)ccc12 [fisetin, 3,3′,4′,7-tetrahydroxyflavone]
decrease in motor nerve conduction velocity (Akita mice [2]): ameliorated | increase in hind paw thermal latency (Akita mice [2]): prevented | IC50 [3]: 585 nM and 580 nM | IC50 (COX1 (Human platelets)): > 10000 nM | IC50 (COX2 (Human recombinant)): > 10000 nM | half-life of free fisetin [4]: very short half-life | short-term toxicity [5]: No indications of toxicity | Ames test (Ames test): negative | inhibition of hERG activity (hERG): no inhibition | inhibition of cytochrome P450 3A4 activity (cytochrome P450 3A4): no inhibitory effects | inhibition of cytochrome P450 2C9 activity (cytochrome P450 2C9): no inhibitory effects | inhibition of cytochrome P450 2D6 activity (cytochrome P450 2D6): no inhibitory effects | maintenance of GSH levels in the presence of oxidative stress (nerve cell): able to maintain GSH levels | differentiation of PC12 cells (neurotrophic activity) (PC12 cells): promoting the differentiation of PC12 cells | swim speeds [6]: no effect | MWM probe test, memory (time in platform quadrant) ([6]; AD mice 9 months of age): clear evidence of memory improvement | escape latency, hidden platform day 2 [7]: indistinguishable from that of the wild type mice | time in the open arms (disinhibition) [8]: reversed | loss of total GSH from the cortex ([9]; scopolamine-treated mice): prevent the loss of total GSH | rescue of memory deficit induced by scopolamine ([9]; single oral dose of 40 mg/kg bw): as effective as donepezil | protection of cells (PC12/Htt^Q103 cells): equal or greater amount of protection | median life span (R6/2 mouse; 0.05% in food from ~6 weeks of age, control diet 104 days): 139 days | rotorod performance (R6/2 mouse; 0.05% in food, at 9, 11 and 13 weeks (p < 0.01)): improved | increase of median life span (R6/2 mouse; 0.05% in food, vs control diet): ~ 30% | EC50 [10]: 3000 nM | infarct size (tMCAO in mice [11]; 25 mg/kg i.p. 20 min before onset of ischemia, placebo 56 μl): 49 µL | infarct size (tMCAO in mice [11]; 50 mg/kg i.p. 20 min before onset of ischemia, placebo 56 μl): 30 µL | infarct size (tMCAO in mice [11]; 50 mg/kg i.p. three hours after onset of ischemia, placebo 42 μl): 27 µL | leukocytes infiltrating the brain (tMCAO in mice [12]; 50 mg/kg bw, day 3, mean ± SD, placebo 179,252 ± 23,389): 93,045 ± 46,963 cells per ischemic hemisphere | numbers of microglia in the ipsilesional hemisphere (tMCAO in mice [12]; 50 mg/kg bw, day 3 after stroke, vs placebo): no significant differences | intracellular TNF-α production in macrophages (tMCAO in mice [12]; day 3, placebo 24.6%): 2.9% | TNF-α–producing microglia (tMCAO in mice [12]; day 3, placebo 30.4%): 17.3% | TNF-α–producing microglia (tMCAO in mice [12]; day 7, placebo 31.9%): 26.8% | intracellular TNF-α production in macrophages (tMCAO in mice [12]; day 7, placebo 33.8%): 13.9% | TNF-α production in macrophages and DCs isolated from spleen (tMCAO in mice [12]; day 3 and day 7 post ischemia, vs placebo): did not show any differences | most effective dose at reducing immobility time [13]: 20 mg/kg bw | most effective dose at reducing immobility time [14]: 20 mg/kg bw | inhibition of monoamine oxidase A (monoamine oxidase A): mild inhibition | elevated blood glucose and HbA1c (Akita mice [15]; 0.05% in food (25–40 mg/kg bw daily), 6 to 24 weeks): not affected | open field test, distance traveled and time ambulatory (anxiety-related symptoms) (Akita mice [15]; 0.05% in food): restored to near normal values | weight loss (Akita mice [15]; 0.05% in food): not altered | Trolox equivalent antioxidant capacity (TEAC) value [16]: ~ 3 | concentration decreasing lipid peroxidation (liver microsomes): 1.35 µM | concentration at which pro-oxidant effects are seen [17]: ≥ 50 µM | chelation of iron [18]: efficient chelation | increase of Nrf2 half-life (Nrf2): ~ 2 fold | increase of ATF4 half-life (ATF4): ~ 2 fold | reduction in the ability of fisetin to maintain cellular GSH levels ([19]; siRNA to ATF4, basal and glutamate-induced oxidative stress conditions): ~ 50% | effect of Nrf2 reduction on the ability of fisetin to maintain GSH levels ([19]; siRNA to Nrf2, basal conditions): no effect | reduction in the ability of fisetin to maintain GSH ([19]; siRNA to Nrf2, in the presence of oxidative stress): ~ 30% | loss of total GSH from cortex and hippocampus [20]: greatly reduce the loss of total GSH | LPS-induced nitric oxide production, TNF-α, PGE2 and iNOS/COX2 expression [21]: blocked | NF-κB-dependent reporter gene expression and protein expression [22]: reduced | activity of CBP/p300 [23]: suppress | p38 MAPK and JNK activation (RAW264.7 macrophages): suppresses | reduction of iNOS expression ([24]; 10 μM, following LPS stimulation (p<0.001)): 91% | IκB, JNK and c-Jun phosphorylation ([24]; LPS-stimulated murine microglia): significantly reduced | LPS-induced nitric oxide and TNF-α production ([24]; N9 cells, vs placebo): significant inhibition | production of PGD2, PGJ2 and 15d-PGD2 ([25]; AD mice study): increased production | ERK phosphorylation in the hippocampus ([25]; AD mice treated with fisetin): increases in ERK phosphorylation | AD-increased production of thromboxanes TXB1 and TXB2 ([25]; AD mice, 0.05% in food): partly prevented | astrocyte area and intensity of GFAP staining in hippocampus ([25]; AD mice, 0.05% in food): largely reversed | brain levels of 5-HETE and 12-HETE ([25]; AD mice): significantly reduce | Aβ1–40 level in RIPA soluble fraction of hippocampus ([25]; ELISA, Aβ1–42 not reduced): significantly reduce | Aβ plaque loads in brain sections ([25]; fisetin-fed vs control AD mice): No significant differences | inhibition of 12-LOX activity (12-LOX): effective inhibitor | inhibition of 5-LOX activity (5-LOX): effective inhibitor | inhibition of 15-LOX activity (15-LOX): effective inhibitor | Aβ fibril formation (Aβ): inhibit Aβ fibril formation | extracellular Aβ toxicity (HT22 cells): prevents extracellular Aβ toxicity | proteasome activity (proteasome): increase proteasome activity | t1/2 of free fisetin in serum [26]: 2.7 min | t1/2 of free fisetin in serum [27]: 3.12 h | body weights [28]: No significant differences | IC50 [29]: 341 nM and 340 nM

COc1cc(-c2oc3cc(O)ccc3c(=O)c2O)ccc1O [geraldol, 3,4′,7-trihydroxy-3′-methoxyflavone]
activity in several biological assays [30]: as active as fisetin

COc1cc(-c2oc3cc(O)cc(O)c3c(=O)c2O)ccc1O [isorhamnetin]
differentiation of PC12 cells (neurotrophic activity) (PC12 cells): some differentiation-inducing activity

O=c1cc(-c2ccc(O)c(O)c2)oc2cc(O)cc(O)c12 [luteolin]
differentiation of PC12 cells (neurotrophic activity) (PC12 cells): some differentiation-inducing activity

O=c1c(O)c(-c2ccc(O)c(O)c2)oc2cc(O)cc(O)c12 [quercetin, reference compound]
maintenance of GSH levels in the presence of oxidative stress (nerve cell): able to maintain GSH levels | differentiation of PC12 cells (neurotrophic activity) (PC12 cells): some differentiation-inducing activity
